Source: ChEMBL document CHEMBL1138903, “Secondary amides of sulfonylated 3-amidinophenylalanine. New potent and selective inhibitors of matriptase” (J Med Chem, 2006)

Tests used:
[1] = molecular target: Urokinase-type plasminogen activator (Homo sapiens, UniProt P00749); experiment: Inhibition of uPA
[2] = molecular target: Plasminogen (Homo sapiens, UniProt P00747); experiment: Inhibition of plasmin
[3] = molecular target: T1, Prothrombin (Homo sapiens, UniProt P00734); experiment: Inhibition of thrombin
[4] = molecular target: Coagulation factor X (Homo sapiens, UniProt P00742); experiment: Inhibition of f10a
[5] = test system: PC-3; experiment: Reduction of median primary tumor growth of PC3 cell line xenografted in nude mouse at 5 mg/kg, ip; format: functional, Homo sapiens; set-up: scale not given: the % may be the effect or the level left; details: route intraperitoneal
[6] = test system: PC-3; experiment: Reduction of dissemination into thorax in nude mouse xenografted with PC3 cell line at 5 mg/kg, ip; format: functional; set-up: scale not given: the % may be the effect or the level left; details: route intraperitoneal
[7] = Anticoagulant activity in blood by aPTT assay; format: functional, Homo sapiens
[8] = molecular target: T2, Suppressor of tumorigenicity 14 protein (Homo sapiens, UniProt Q9Y5Y6)
T2 sequence (Q9Y5Y6 whole entry): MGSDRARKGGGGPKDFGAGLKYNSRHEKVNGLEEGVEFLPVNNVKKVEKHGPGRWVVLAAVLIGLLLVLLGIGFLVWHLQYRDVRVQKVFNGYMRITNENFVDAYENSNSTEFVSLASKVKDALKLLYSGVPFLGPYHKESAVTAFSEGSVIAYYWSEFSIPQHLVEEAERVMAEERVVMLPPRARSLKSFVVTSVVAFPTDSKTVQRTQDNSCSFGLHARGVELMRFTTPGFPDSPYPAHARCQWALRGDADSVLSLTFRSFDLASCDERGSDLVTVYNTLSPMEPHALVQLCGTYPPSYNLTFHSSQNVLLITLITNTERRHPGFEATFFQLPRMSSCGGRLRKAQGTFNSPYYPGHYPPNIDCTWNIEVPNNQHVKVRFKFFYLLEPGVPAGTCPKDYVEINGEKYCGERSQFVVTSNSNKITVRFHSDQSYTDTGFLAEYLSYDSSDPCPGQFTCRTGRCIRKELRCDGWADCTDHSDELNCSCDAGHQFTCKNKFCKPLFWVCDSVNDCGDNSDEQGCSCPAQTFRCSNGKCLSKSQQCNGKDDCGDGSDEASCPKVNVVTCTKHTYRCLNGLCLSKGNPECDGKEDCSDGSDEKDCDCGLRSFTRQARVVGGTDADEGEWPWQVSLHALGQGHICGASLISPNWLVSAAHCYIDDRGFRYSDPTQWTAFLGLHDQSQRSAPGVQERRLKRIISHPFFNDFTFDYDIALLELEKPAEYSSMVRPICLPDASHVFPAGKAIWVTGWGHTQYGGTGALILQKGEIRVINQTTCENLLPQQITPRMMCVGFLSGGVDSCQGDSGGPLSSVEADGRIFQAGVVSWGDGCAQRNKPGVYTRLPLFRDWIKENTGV

[9] = molecular target: T1, Prothrombin; details: Blood
[10] = molecular target: Coagulation factor VII/tissue factor (Homo sapiens) (UniProt P08709+P13726); details: Blood
Description: Anticoagulant activity in blood by PT assay

[11] = molecular target: T2, Suppressor of tumorigenicity 14 protein; experiment: Reduction of matriptase-catalyzed pro-HGF to HGF processing; format: functional

Sequence of Coagulation factor X (P00742 41-179 limits assumed): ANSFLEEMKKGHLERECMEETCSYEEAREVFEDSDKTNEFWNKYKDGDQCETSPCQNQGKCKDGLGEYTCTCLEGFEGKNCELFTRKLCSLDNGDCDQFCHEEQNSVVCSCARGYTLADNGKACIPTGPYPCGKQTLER
Sequence of Coagulation factor X (P00742 235-488 limits assumed): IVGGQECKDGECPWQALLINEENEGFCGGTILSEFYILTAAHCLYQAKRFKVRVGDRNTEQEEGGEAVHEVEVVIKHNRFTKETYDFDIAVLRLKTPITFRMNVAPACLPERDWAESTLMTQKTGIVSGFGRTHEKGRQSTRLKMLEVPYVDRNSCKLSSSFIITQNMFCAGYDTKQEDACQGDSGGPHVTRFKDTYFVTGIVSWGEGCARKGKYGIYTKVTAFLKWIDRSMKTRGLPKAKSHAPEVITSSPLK
Sequence of Plasminogen (P00747 97-580 limits assumed): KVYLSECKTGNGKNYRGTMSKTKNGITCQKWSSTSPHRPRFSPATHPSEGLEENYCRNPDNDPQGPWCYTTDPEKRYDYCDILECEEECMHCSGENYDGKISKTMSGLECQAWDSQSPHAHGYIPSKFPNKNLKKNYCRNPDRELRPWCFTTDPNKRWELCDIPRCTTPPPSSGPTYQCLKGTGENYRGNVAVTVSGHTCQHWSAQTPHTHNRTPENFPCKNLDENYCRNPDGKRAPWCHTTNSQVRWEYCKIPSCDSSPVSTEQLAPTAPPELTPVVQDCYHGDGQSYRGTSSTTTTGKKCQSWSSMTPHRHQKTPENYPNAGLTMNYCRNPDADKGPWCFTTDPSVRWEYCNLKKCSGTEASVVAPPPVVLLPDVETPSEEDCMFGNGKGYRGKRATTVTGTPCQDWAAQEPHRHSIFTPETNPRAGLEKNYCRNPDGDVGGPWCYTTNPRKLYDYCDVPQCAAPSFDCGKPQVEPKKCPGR
Sequence of Plasminogen (P00747 581-810 limits assumed): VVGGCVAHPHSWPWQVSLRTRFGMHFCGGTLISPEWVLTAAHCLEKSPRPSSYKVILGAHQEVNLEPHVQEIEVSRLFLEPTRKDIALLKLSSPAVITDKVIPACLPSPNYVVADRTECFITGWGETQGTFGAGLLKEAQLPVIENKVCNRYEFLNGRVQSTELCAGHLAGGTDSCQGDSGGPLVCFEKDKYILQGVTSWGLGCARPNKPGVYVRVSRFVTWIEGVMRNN

With `N=C(N)c1cccc(C[C@H](NS(=O)(=O)c2cccc(NC(=O)CCN)c2)C(=O)N2CCC(CCN)CC2)c1` as the molecule, how does the Ki [1] read?
Its Ki is 3.6 µM.

And the Ki [2]?
The Ki was 2.4 µM.

What about the Ki [3] of the same molecule?
Its Ki is 27 µM.

What about the Ki [4] of the same molecule?
Its Ki is 21 µM.

What about the Activity [5] of the same molecule?
The Activity was 40%.

And the Activity [6]?
Its Activity is 33%.

And the IC200 [7]?
Its IC200 is greater than 10 µM.

And the Ki [8]?
Its Ki is 0.0066 µM.

And the IC200 [9]?
The IC200 was greater than 10 µM.

And the IC200 [10]?
Its IC200 is greater than 10 µM.

For `N=C(N)NCCC1CCN(C(=O)[C@H](Cc2cccc(C(=N)N)c2)NS(=O)(=O)c2ccc3ccccc3c2)CC1`, which Ki [1] is on record?
The Ki was 1.3 µM.

What about the Ki [2] of the same molecule?
The Ki was 20 µM.

And the Ki [3]?
The Ki was 0.11 µM.

What about the Ki [4] of the same molecule?
The Ki was 27 µM.

What about the Activity [5] of the same molecule?
Its Activity is 17%.

And the Activity [6]?
Its Activity is 53%.

What about the IC200 [7] of the same molecule?
The IC200 was 2.7 µM.

What about the IC200 [9] of the same molecule?
Its IC200 is 0.32 µM.

What about the IC200 [10] of the same molecule?
Its IC200 is 3.8 µM.

For `N=C(N)c1cccc(C[C@H](NS(=O)(=O)c2cccc(NC(=O)CCN)c2)C(=O)N2CCC(CCCN=C(N)N)CC2)c1`, which Ki [1] is on record?
Its Ki is 1.8 µM.

What about the Ki [2] of the same molecule?
The Ki was 2.8 µM.

What about the Ki [3] of the same molecule?
Its Ki is 4 µM.

And the Ki [4]?
Its Ki is 13 µM.

What about the IC200 [7] of the same molecule?
Its IC200 is greater than 10 µM.

And the Ki [8]?
Its Ki is 0.0015 µM.

What about the IC200 [9] of the same molecule?
Its IC200 is greater than 10 µM.

And the IC200 [10]?
Its IC200 is greater than 10 µM.

With `N=C(N)c1cccc(C[C@H](NS(=O)(=O)c2cccc(NC(=O)CCN)c2)C(=O)N2CCC(CCN=C(N)N)CC2)c1` as the molecule, how does the Ki [1] read?
Its Ki is 1.7 µM.

And the Ki [2]?
Its Ki is 5 µM.

And the Ki [3]?
The Ki was 6 µM.

And the Ki [4]?
Its Ki is 9.5 µM.

What about the Ki [8] of the same molecule?
Its Ki is 0.0018 µM.

For `CCC(C)(C)c1ccc(S(=O)(=O)N[C@@H](Cc2cccc(C(=N)N)c2)C(=O)N2CCN(C(=O)CCN=C(N)N)CC2)cc1`, which Ki [1] is on record?
The Ki was 18 µM.

And the Ki [2]?
The Ki was 2.5 µM.

And the Ki [3]?
The Ki was 0.26 µM.

What about the Ki [4] of the same molecule?
Its Ki is 8.3 µM.

And the Ki [8]?
Its Ki is 0.2 µM.

What does the source list for `N=C(N)NCCC(=O)N1CCN(C(=O)[C@H](Cc2cccc(C(=N)N)c2)NS(=O)(=O)c2ccc(C3CCCCC3)cc2)CC1`?
Ki [1]: 10.5 µM; Ki [2]: 0.78 µM; Ki [3]: 0.12 µM; Ki [4]: 2.3 µM; Ki [8]: 0.089 µM

Which results are given for `N=C(N)c1cccc(C[C@H](NS(=O)(=O)c2cccc3ccccc23)C(=O)N2CCC(CCN=C(N)N)CC2)c1`?
Ki [1]: 2.3 µM; Ki [2]: 1.7 µM; Ki [3]: 0.19 µM; Ki [4]: 13 µM; Ki [8]: 0.072 µM

Which Ki [1] does the source give for `CC(C)c1cc(C(C)C)c(S(=O)(=O)N[C@@H](Cc2cccc(C(=N)N)c2)C(=O)N2CCN(C(=O)CCN=C(N)N)CC2)c(C(C)C)c1` here?
The Ki was 0.82 µM.

What about the Ki [2] of the same molecule?
Its Ki is 1.4 µM.

What about the Ki [3] of the same molecule?
The Ki was 1.6 µM.

What about the Ki [4] of the same molecule?
Its Ki is 2.9 µM.

What about the Ki [8] of the same molecule?
The Ki was 0.057 µM.

Which results are given for `N=C(N)c1cccc(C[C@H](NS(=O)(=O)CCc2cccc3ccccc23)C(=O)N2CCN(C(=O)CCN=C(N)N)CC2)c1`?
Ki [1]: 56 µM; Ki [2]: 4.2 µM; Ki [3]: 1.5 µM; Ki [4]: 80 µM; Ki [8]: 0.69 µM

For `N=C(N)NCCC(=O)Nc1cccc(S(=O)(=O)N[C@@H](Cc2cccc(C(=N)N)c2)C(=O)N2CCC(CCNC(=N)N)CC2)c1`, which Ki [1] is on record?
The Ki was 1.2 µM.

What about the Ki [2] of the same molecule?
Its Ki is 1.8 µM.

And the Ki [3]?
The Ki was 4 µM.

What about the Ki [4] of the same molecule?
Its Ki is 2 µM.

And the Ki [8]?
Its Ki is 0.0042 µM.

With `CC(C)c1cc(C(C)C)c(S(=O)(=O)N[C@@H](Cc2cccc(C(=N)N)c2)C(=O)N2CCC(CCN=C(N)N)CC2)c(C(C)C)c1` as the molecule, how does the Ki [1] read?
The Ki was 0.32 µM.

And the Ki [2]?
Its Ki is 1 µM.

What about the Ki [3] of the same molecule?
Its Ki is 0.3 µM.

What about the Ki [4] of the same molecule?
The Ki was 3.2 µM.

What about the Ki [8] of the same molecule?
Its Ki is 0.089 µM.

Which Ki [1] does the source give for `N=C(N)c1cccc(C[C@H](NS(=O)(=O)c2ccc(C3CCCCC3)cc2)C(=O)N2CCN(C(=N)N)CC2)c1` here?
The Ki was 8.2 µM.

What about the Ki [2] of the same molecule?
Its Ki is 3.1 µM.

And the Ki [3]?
Its Ki is 1.7 µM.

What about the Ki [4] of the same molecule?
The Ki was 1.3 µM.

And the IC50 [11]?
The IC50 was 3 µM.

What about the Ki [8] of the same molecule?
The Ki was 0.026 µM.

Which results are given for `N=C(N)NCCC1CCN(C(=O)[C@H](Cc2cccc(C(=N)N)c2)NS(=O)(=O)c2ccc(Oc3ccccc3)nc2)CC1`?
Ki [1]: 3.4 µM; Ki [2]: 1.4 µM; Ki [3]: 0.099 µM; Ki [4]: 2.2 µM; IC200 [7]: 1.5 µM; Ki [8]: 0.013 µM; IC200 [9]: 0.27 µM; IC200 [10]: 1.6 µM

For `CC(C)c1cc(C(C)C)c(S(=O)(=O)N[C@@H](Cc2cccc(C(=N)N)c2)C(=O)N2CCCN(C(=O)CCN=C(N)N)CC2)c(C(C)C)c1`, which Ki [1] is on record?
Its Ki is 0.81 µM.

And the Ki [2]?
Its Ki is 0.44 µM.

What about the Ki [3] of the same molecule?
The Ki was 0.62 µM.

And the Ki [4]?
The Ki was 1.2 µM.

What about the Ki [8] of the same molecule?
The Ki was 0.065 µM.

Which results are given for `CC(C)c1cc(C(C)C)c(S(=O)(=O)N[C@@H](Cc2cccc(C(=N)N)c2)C(=O)N2CCN(C(=O)CCCN=C(N)N)CC2)c(C(C)C)c1`?
Ki [1]: 0.26 µM; Ki [2]: 0.88 µM; Ki [3]: 4.2 µM; Ki [4]: 2.8 µM; Ki [8]: 0.061 µM

For `N=C(N)c1cccc(C[C@H](NS(=O)(=O)c2ccc(NC(=O)CCN)cc2)C(=O)N2CCC(CCN)CC2)c1`, which Ki [1] is on record?
The Ki was 0.82 µM.

And the Ki [2]?
Its Ki is 1.2 µM.

What about the Ki [3] of the same molecule?
Its Ki is 8.8 µM.

And the Ki [4]?
Its Ki is 15 µM.

And the Ki [8]?
The Ki was 0.028 µM.

Which Ki [1] does the source give for `CC(C)c1cc(C(C)C)c(S(=O)(=O)N[C@@H](Cc2cccc(C(=N)N)c2)C(=O)N2CCC(C(=O)NCCN)CC2)c(C(C)C)c1` here?
The Ki was 1.2 µM.

What about the Ki [2] of the same molecule?
Its Ki is 0.94 µM.

What about the Ki [3] of the same molecule?
The Ki was 16 µM.

And the Ki [4]?
The Ki was 6.3 µM.

And the Ki [8]?
Its Ki is 0.38 µM.
